Experimental data from US20080194574A1, “Pyrazine Derivatives As Effective Compounds Against Infectious Diseases” (AXXIMA PHARMACEUTICALS AG, priority 2003, published 2008).
Read-outs that look alike come from different tables or passages of the source.

Biological target: T1, viral kinase pUL-97 (Human cytomegalovirus, UniProt P16788)
T1 construct: The pUL-97 gene was cloned into a baculovirus vector; GST (glutathione S-transferase) (N); made in house; host or cells: Sf9 insect cells, baculovirus
T1 sequence (P16788 whole entry): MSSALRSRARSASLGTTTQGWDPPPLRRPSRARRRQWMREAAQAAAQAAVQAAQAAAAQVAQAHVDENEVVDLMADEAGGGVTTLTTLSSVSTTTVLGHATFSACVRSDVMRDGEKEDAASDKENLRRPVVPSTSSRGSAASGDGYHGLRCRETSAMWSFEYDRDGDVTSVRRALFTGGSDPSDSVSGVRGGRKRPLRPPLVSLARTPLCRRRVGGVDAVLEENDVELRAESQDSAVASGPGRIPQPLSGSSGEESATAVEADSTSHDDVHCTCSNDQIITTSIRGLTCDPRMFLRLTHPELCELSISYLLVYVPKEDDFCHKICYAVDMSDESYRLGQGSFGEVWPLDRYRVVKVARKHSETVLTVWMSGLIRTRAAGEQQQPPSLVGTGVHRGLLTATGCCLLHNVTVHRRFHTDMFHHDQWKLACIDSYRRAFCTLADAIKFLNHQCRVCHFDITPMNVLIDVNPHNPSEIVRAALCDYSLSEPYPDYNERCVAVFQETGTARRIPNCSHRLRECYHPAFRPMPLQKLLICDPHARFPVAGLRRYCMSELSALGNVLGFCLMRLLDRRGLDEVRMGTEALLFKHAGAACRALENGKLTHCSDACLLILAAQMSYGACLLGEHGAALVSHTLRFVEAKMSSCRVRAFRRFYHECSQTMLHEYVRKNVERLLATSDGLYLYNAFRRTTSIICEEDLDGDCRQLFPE
Experiment: UL97 kinase assay on Immobilon plate
Type: biochemical
Settings: inhibition of UL 97 kinase activity, read-out: Activity Class [A, B, C]
How it was run: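 GST-pUL97 from baculovirus-infected Sf9 cells phosphorylated myelin basic protein with ATP (3 μM in the added assay buffer) and γ-[33P]ATP in Tris-HCl pH 7.5 buffer with MnCl2 and DTT. Reaction ran 1 h at 30 °C with graded compound concentrations and was stopped with EDTA. 33P incorporation was measured by scintillation after filter capture and phosphoric acid washes.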

[1] = class by IC50 / % inhibition at 10 μM or 100 μM
[2] = class by IC50 / % inhibition at 10 or 100 μM

Compound | IC50 [1] [µM] | IC50 [2] [µM]
CC(=O)c1ccc(N2CCN(c3cncc(-c4ccc(C(C)(C)C)cc4)n3)CC2)cc1 [compound 204, 1-{4-[6′-(4-tert-Butyl-phenyl)-2,3,5,6-tetrahydro-[1,2′]bipyrazinyl-4-yl]-phenyl}-ethanone] | 10 to 100 | –
FC(F)(F)c1cccc(N2CCN(c3cncc(-c4cc5ccccc5s4)n3)CC2)c1 [compound 160, 6′-Benzo[b]thiophen-2-yl-4-(3-trifluoromethyl-phenyl)-3,4,5,6-tetrahydro-2H-[1,2′]bipyrazinyl] | – | 1 to 10
CSc1ccc(-c2cncc(N3CCC(c4ccccc4)CC3)n2)cc1 [compound 361, 2-(4-Methylsulfanyl-phenyl)-6-(4-phenyl-piperidin-1-yl)-pyrazine] | 1 to 10 | –
Oc1ccc(-c2cncc(NCc3cccs3)n2)cc1 [compound 30, 4-{6-[(Thiophen-2-ylmethyl)-amino]-pyrazin-2-yl}-phenol] | – | < 1
COc1ccc(N2CCN(c3cncc(-c4ccc(CN)cc4)n3)CC2)cc1OC [compound 60, 4-[4-(3,4-Dimethoxy-phenyl)-3,4,5,6-tetrahydro-2H-[1,2′]bipyrazinyl-6′-yl]-benzylamine] | – | 10 to 100
CSc1ccc(-c2cncc(N3CCN(c4ccc(C)c(C)c4)CC3)n2)cc1 [compound 359, 4-(3,4-Dimethyl-phenyl)-6′-(4-methylsulfanyl-phenyl)-3,4,5,6-tetrahydro-2H-[1,2′]bipyrazinyl] | 1 to 10 | –
OCc1ccc(-c2cncc(N3CCN(c4ccccn4)CC3)n2)cc1 [compound 351, [4-(4-Pyridin-2-yl-3,4,5,6-tetrahydro-2H-[1,2′]bipyrazinyl-6′-yl)-phenyl]-methanol] | 1 to 10 | –
COc1cccc(-c2cncc(N3CCN(c4cccc(Cl)c4)CC3)n2)c1OC [compound 183, 4-(3-Chloro-phenyl)-6′-(2,3-dimethoxy-phenyl)-3,4,5,6-tetrahydro-2H-[1,2′]bipyrazinyl] | – | 10 to 100
Cc1ccc(N2CCN(c3cncc(-c4ccc(C(F)(F)F)cc4)n3)CC2)c(C)c1 [compound 354, 4-(2,4-Dimethyl-phenyl)-6′-(4-trifluoromethyl-phenyl)-3,4,5,6-tetrahydro-2H-[1,2′]bipyrazinyl] | 10 to 100 | –
Cc1cccc(N2CCN(c3cncc(-c4cc5ccccc5s4)n3)CC2C)c1 (stereo not shown) [compound 300, 6′-Benzo[b]thiophen-2-yl-3-methyl-4-m-tolyl-3,4,5,6-tetrahydro-2H-[1,2′]bipyrazinyl] | 10 to 100 | –
Cc1ccc(-c2cncc(N3CCN(c4ccccn4)CC3)n2)cc1C [compound 50, 6′-(3,4-Dimethyl-phenyl)-4-pyridin-2-yl-3,4,5,6-tetrahydro-2H-[1,2′]bipyrazinyl] | – | 1 to 10
COc1ccc(-c2cncc(N3CCN(c4ccc(C)cc4)CC3)n2)cc1F [compound 265, 6′-(3-Fluoro-4-methoxy-phenyl)-4-p-tolyl-3,4,5,6-tetrahydro-2H-[1,2′]bipyrazinyl] | 10 to 100 | –
Fc1ccc(-c2cncc(N3CCN(c4ccncc4)CC3)n2)cc1 [compound 76, 6′-(4-Fluoro-phenyl)-4-pyridin-4-yl-3,4,5,6-tetrahydro-2H-[1,2′]bipyrazinyl] | – | 1 to 10
Fc1ccc(N2CCN(c3cncc(-c4ccc(F)c(Cl)c4)n3)CC2)c(F)c1 [compound 145, 6′-(3-Chloro-4-fluoro-phenyl)-4-(2,4-difluoro-phenyl)-3,4,5,6-tetrahydro-2H-[1,2′]bipyrazinyl] | – | 10 to 100
CSc1ccc(-c2cncc(N3CCN(c4ccccc4)CC3)n2)cc1 [compound 120, 6′-(4-Methylsulfanyl-phenyl)-4-phenyl-3,4,5,6-tetrahydro-2H-[1,2′]bipyrazinyl] | – | 1 to 10
Clc1ccc(-c2cncc(N3CCN(c4ccccn4)CC3)n2)cc1 [compound 14, 6′-(4-Chloro-phenyl)-4-pyridin-2-yl-3,4,5,6-tetrahydro-2H-[1,2′]bipyrazinyl] | – | 10 to 100

Compound | IC50 [1] [µM] | IC50 [2] [µM]
CSc1ccc(-c2cncc(N3CCN(c4ccc(C(F)(F)F)cc4)CC3)n2)cc1 [compound 311, 6′-(4-Methylsulfanyl-phenyl)-4-(4-trifluoromethyl-phenyl)-3,4,5,6-tetrahydro-2H-[1,2′]bipyrazinyl] | 1 to 10 | –
Cc1ccc(N2CCN(c3cncc(-c4csc5ccccc45)n3)CC2)cc1C [compound 317, 6′-Benzo[b]thiophen-3-yl-4-(3,4-dimethyl-phenyl)-3,4,5,6-tetrahydro-2H-[1,2′]bipyrazinyl] | 10 to 100 | –
CCOc1ccc(-c2cncc(N3CCN(c4ccc(C(C)=O)cc4)CC3)n2)cc1 [compound 207, 1-{4-[6′-(4-Ethoxy-phenyl)-2,3,5,6-tetrahydro-[1,2′]bipyrazinyl-4-yl]-phenyl}-ethanone] | 10 to 100 | –
Fc1ccc(N2CCN(c3cncc(-c4cccc5ccccc45)n3)CC2)c(F)c1 [compound 143, 4-(2,4-Dinfluoro-phenyl)-6′-naphthalen-1-yl-3,4,5,6-tetrahydro-2H-[1,2′]bipyrazinyl] | – | 10 to 100
COc1ccc(-c2cncc(N3CCN(c4ccc(F)cc4)CC3)n2)cc1OC [compound 139, 6′-(3,4-Dimethoxy-phenyl)-4-(4-fluoro-phenyl)-3,4,5,6-tetrahydro-2H-[1,2′]bipyrazinyl] | – | 1 to 10
Fc1ccc(N2CCN(c3cncc(-c4ccc(C(F)(F)F)cc4)n3)CC2)c(F)c1 [compound 210, 4-(2,4-Difluoro-phenyl)-6′-(4-trifluoromethyl-phenyl)-3,4,5,6-tetrahydro-2H-[1,2′]bipyrazinyl] | 1 to 10 | –
Fc1ccc(N2CCN(c3cncc(-c4cccc(F)c4)n3)CC2)cc1 [compound 181, 4-(4-Fluoro-phenyl)-6′-(3-fluoro-phenyl)-3,4,5,6-tetrahydro-2H-[1,2′]bipyrazinyl] | – | 10 to 100
FC(F)(F)c1cccc(N2CCN(c3cncc(-c4ccoc4)n3)CC2)c1 [compound 255, 6′-Furan-3-yl-4-(3-trifluoromethyl-phenyl)-3,4,5,6-tetrahydro-2H-[1,2′]bipyrazinyl] | 10 to 100 | –
Fc1ccc(N2CCN(c3cncc(-c4ccc5ccccc5c4)n3)CC2)c(F)c1 [compound 199, 4-(2,4-Difluoro-phenyl)-6′-naphthalen-2-yl-3,4,5,6-tetrahydro-2H-[1,2′]bipyrazinyl] | 1 to 10 | –
c1coc(CNc2cncc(-c3cc4ccccc4o3)n2)c1 [compound 23, (6-Benzofuran-2-yl-pyrazin-2-yl)-furan-2-ylmethyl-amine] | – | 10 to 100
CN(C)c1ccc(-c2cncc(N3CCN(c4ccccc4F)CC3)n2)cc1 [compound 195, {4-[4-(2-Fluoro-phenyl)-3,4,5,6-tetrahydro-2H-[1,2′]bipyrazinyl-6′-yl]-phenyl}-dimethyl-amine] | – | 1 to 10
Fc1ccc(N2CCN(c3cncc(-c4ccc(C(F)(F)F)cc4)n3)CC2)cc1 [compound 180, 4-(4-Fluoro-phenyl)-6′-(4-trifluoromethyl-phenyl)-3,4,5,6-tetrahydro-2H-[1,2′]bipyrazinyl] | – | 1 to 10
CSc1ccccc1-c1cncc(N2CCN(c3ccccn3)CC2)n1 [compound 342, 6′-(2-Methylsulfanyl-phenyl)-4-pyridin-2-yl-3,4,5,6-tetrahydro-2H-[1,2′]bipyrazinyl] | 10 to 100 | –
CSc1ccc(-c2cncc(N3CCN(c4ccc(C(C)=O)cc4)CC3)n2)cc1 [compound 159] | – | < 1
CSc1ccc(-c2cncc(N3CCN(c4ccc(C)cc4)CC3)n2)cc1 [compound 137, 6′-(4-Methylsulfanyl-phenyl)-4-p-tolyl-3,4,5,6-tetrahydro-2H-[1,2′]bipyrazinyl] | – | 1 to 10
